Test results taken from patent US20230117361A1, “COMPOSITION COMPRISING MIR-335” (AGENCY FOR SCIENCE, TECHNOLOGY AND RESEARCH, priority 2019, published 2023).

Legend:
AD-like symptoms = settings: mice, two independent studies [24, 25]; cited from earlier work
N/TERT-1 keratinocytes [1] = experiment: Cornified envelope assay; format: cell-based, human; settings: N/TERT-1 treated with HDAC inhibitor vs control, FIG. 6C, 6D
Protocol: N/TERT-1 keratinocytes were grown in DF-K media until confluent, and then shifted to high Ca^2+ conditions (1.5 mM) for a further 7 days in fresh DF-K media to induce terminal differentiation and cornified envelope formation, and the number of cornified envelopes (CEs) assessed following the method of Rice et al. In brief, cells were trypsinized and resuspended at 2.0×10^6 cells/ml in dissociation buffer containing 0.1 M Tris-HCl buffer pH 8.0, 2% SDS and 20 mM dithiothreitol. CEs were harvested by boiling the samples for 15 minutes at 100° C. Detergent- and reducing agent-resistant CEs were collected as an insoluble pellet by centrifugation at 4000×g for 10 minutes. CEs were counted with a hemocytometer, and CE formation was expressed as a percentage of input cell number.

human skin biopsies = experiment: Ex-vivo human skin organ culture model, topical treatment
Protocol: (§1) Paraffin wax-embedded skin tissue sections (5 μm) were dewaxed, rehydrated and boiled in pre-treatment solution (Panomics) for 5 minutes and subsequently treated with protease (Panomics) for 30 minutes at 37° C. Locked nucleic acid (LNA) probes were then added to the sections and incubated at 51° C. for 4 hours. The LNA probes used are specific to miR-335 and scrambled (non-targeting) sequences and are 5′ and 3′ digoxigenin- (DIG-) labelled. After washing the sections sequentially with 5× saline-sodium citrate (SSC), 1×SSC and 0.3×SSC buffer, they were blocked with 10% goat serum and incubated with anti-DIG alkaline phosphatase (Roche) overnight at 4° C. Fast Red Substrate (Panomics) were used to detect miRNA-bound LNA probes. Tissue sections were counterstained with 4′,6-diamidino-2-phenylindole dihydrochloride (DAPI) (Sigma-Aldrich) and mounted with FluorSave™ reagent (EMD Millipore). The slides were examined with an FV1000 inverted confocal microscope (Olympus) and images were acquired using Olympus FluoView with TRITC and DAPI filters.
Paraffin wax-embedded skin tissue sections (5 μm) were dewaxed and rehydrated through decreasing concentration of ethanol. Endogenous peroxidases in tissue sections were quenched by 3% H2O2 in absolute methanol for 30 minutes. The sections were then boiled in antigen retrieval solution (pH 6, DAKO). Sections were then blocked in 10% goat serum for 30 minutes and incubated with primary antibodies overnight at 4° C. After incubation with primary antibodies, tissues were incubated with anti-rabbit or -mouse Envision-labelled polymer reagents (DAKO) for 1 hour at room temperature. The staining was visualized by 3,3′-diaminodbenzidine (DAB) substrate chromogen kit (DAKO). Slides were counterstained with haematoxylin and examined with a Zeiss AxioImager Z1 upright light microscope after mounting with CytosealTM60 mounting medium (Richard Allan Scientific). Images were acquired using Zeiss Zen software.
(§2) Total RNA was isolated using miRCURY™ RNA isolation kit (Exiqon). For miRNA quantification, cDNA was synthesized using Taqman® miRNA reverse transcription kit (Life Technologies) and the expression level of miRNAs was quantified by TaqMan Gene Expression Assays (Applied Biosystems) in 7900 fast RT-PCR system (Applied Biosystems) using Taqman miRNA-specific primers. For mRNA expression, cDNA was synthesized using SuperScript® III Reverse Transcriptase (Life Technologies) according to manufacturer's protocol. The expression levels of mRNAs were measured using SYBR green PCR Master Mix (Applied Biosystems). […] The expression of a gene/miRNA was defined from threshold cycle (Ct), and relative transcript abundance was calculated using ddCT method. […]

miR-335 = miR-335 expression in N/TERT-1 cells treated with HDAC inhibitors (qRT-PCR, in situ hybridization); format: cell-based, human
Protocol: as §1, with “Tissue sections were counterstained with 4′,6-diamidino-2-phenylindole dihydrochloride (DAPI) (Sigma-Aldrich) and mounted with FluorSave™ reagent (EMD Millipore). The slides were examined with an FV1000 inverted confocal microscope (Olympus) and images were acquired using Olympus FluoView with TRITC and DAPI filters.” left out
as §2, with “For mRNA expression, cDNA was synthesized using SuperScript® III Reverse Transcriptase (Life Technologies) according to manufacturer's protocol.” left out

N/TERT-1 cells = experiment: HDAC inhibitor screening: toxicity, growth arrest and differentiation; format: cell-based, human; settings: HDACi 1 μM, 48 hrs
Protocol: A panel of 42 HDAC inhibitors (HDACi) covering the majority of type I, II and pan HDACis were purchased from Selleckchem. N/TERT-1 grown to confluence were treated with HDACi at a final concentration of 1 μM from a 100 μM stock. Control wells were treated with DMSO at a final concentration of 1%. After 48 hrs of treatment, cells were either processed for total RNA isolation or fixed and stained for human involucrin by immunocytochemistry.

N/TERT-1 keratinocytes [2] = experiment: Expression of MEST and keratinocyte differentiation markers (IVL, SPRR2F, TGM1) in N/TERT-1 cells treated with HDAC inhibitors; format: cell-based, human
Protocol: Cells were fixed and permeabilized with ice-cold acetone/methanol for 10 minutes. After washing in phosphate buffered saline (PBS), the cells were incubated with 10% goat serum for 30 minutes. The cells were subsequently incubated with primary antibodies for 2 hours at room temperature or overnight at 4° C. After washing three times with PBS with 0.1% Tween 20, the cells were incubated in dark with Alexa Fluor secondary antibodies (Invitrogen) for an hour. Nuclei were stained using DAPI. After washing with PBS, the cells were mounted onto slides with FluorSave reagent (EMD Millipore). Images were taken with an FV1000 inverted confocal microscope (Olympus) using Olympus FluoView.
Total RNA was isolated using miRCURY™ RNA isolation kit (Exiqon). For miRNA quantification, cDNA was synthesized using Taqman® miRNA reverse transcription kit (Life Technologies) and the expression level of miRNAs was quantified by TaqMan Gene Expression Assays (Applied Biosystems) in 7900 fast RT-PCR system (Applied Biosystems) using Taqman miRNA-specific primers. For mRNA expression, cDNA was synthesized using SuperScript® III Reverse Transcriptase (Life Technologies) according to manufacturer's protocol. The expression levels of mRNAs were measured using SYBR green PCR Master Mix (Applied Biosystems). U6 and RPLP0 were used as endogenous normalization controls for miRNA and protein-coding genes, respectively. The expression of a gene/miRNA was defined from threshold cycle (Ct), and relative transcript abundance was calculated using ddCT method. All reactions were run in triplicates. The primers were designed using the Primer3 software and the NCBI design primer tools. The primers were checked for their GC content and any secondary structure formation using OligoCalc.
A panel of 42 HDAC inhibitors (HDACi) covering the majority of type I, II and pan HDACis were purchased from Selleckchem. N/TERT-1 grown to confluence were treated with HDACi at a final concentration of 1 μM from a 100 μM stock. Control wells were treated with DMSO at a final concentration of 1%. […]

[3] = tested on: promoter region of miR-335 and MEST; experiment: Chromatin immunoprecipitation (ChIP)-qPCR at the promoter region of miR-335 and MEST; format: cell-based, human
Protocol: Cells were crosslinked with 1.5% formaldehyde for 10 minutes at 37° C. The reaction was stopped by adding glycine to the final concentration of 125 mM for 5 minutes at 37° C. Fixed cells were washed twice with ice-cold PBS, scraped and centrifuged. The pellets were then incubated with Buffer A (10 mM HEPES Ph7.9, 10 mM KCl, 0.1 mM EGTA, 1 mM DTT and 0.5 mM PMSF) supplemented with 1×protease inhibitor cocktail (Roche) and 10% glycerol on ice for 30 min, followed by 0.5% NP-40 for 5 minutes to lyse cytoplasmic membrane. The cells were then centrifuged at 1500×g for 5 minutes to pellet down nuclei. Nuclear pellet was then lysed in ChIP buffer (50 mM Tris pH 7.4, 150 mM NaCl, 5 mM EDTA, 0.5% NP-40, 1% Triton X-100, 0.05% SDS, 1×protease inhibitor cocktail). Nuclear chromatin was sheared by sonication for 15 min (30 sec on and 30 sec off) in Bioruptor® water bath sonicator. The sonicated samples were centrifuged, and the supernatant containing the sheared chromatin was harvested. For each ChIP reaction, 250 μl of chromatin extract was incubated with appropriate antibodies at 4° C. overnight on a rotary wheel. 50 μl of Protein A sepharose resin (precoated with 0.5% BSA and 0.2 mg/mL tRNA) was then added to the immunoprecipitated samples and incubated for 2 hours. […] Fold enrichment of the genes was calculated using ddCt method with input Ct values as normalization control.

SMILES: CC(/C=C/C(=O)NO)=C\[C@@H](C)C(=O)c1ccc(N(C)C)cc1 [TSA, trichostatin A]
- development of AD-like symptoms (AD-like symptoms): suppress the development of AD-like symptoms

SMILES: O=C(/C=C/c1cccc(S(=O)(=O)Nc2ccccc2)c1)NO [belinostat, (E)-N-hydroxy-3-(3-(N-phenylsulfamoyl)phenyl)acrylamide]
- number of cornified envelopes (CEs) (N/TERT-1 keratinocytes [1]): increased number of CEs
- expression of miR-335 in epidermal layers by in situ hybridization (human skin biopsies; human skin biopsies vs mock treated skin, FIG. 6F): higher expression of miR-335
- levels of IVL by immunohistochemistry (human skin biopsies; human skin biopsies, FIG. 6G): significant increase in the levels of IVL
- filaggrin (FLG) protein by immunohistochemistry (human skin biopsies; human skin biopsies, FIG. 11): induced significant levels of filaggrin
- expression of miR-335 by quantitative RT-PCR (human skin biopsies; human skin biopsies, topical in acetone, 1 mM, daily for six days, FIG. 6E): significant expression of miR-335
- expression of miR-335 by in situ hybridization (miR-335; N/TERT-1 cells, FIG. 6B upper panel): Induced expression of miR-335
- toxicity (N/TERT-1 cells): low toxicity
- expression of IVL by immunocytochemistry (N/TERT-1 keratinocytes [2]; N/TERT-1 cells vs control cells, FIG. 6B lower panel): significant expression of IVL

SMILES: CCCC(=O)[O-].[Na+] [sodium butyrate]
- enrichment of H3K4ac at the upstream region of MEST and miR-335 ([3]; N/TERT-1, ChIP, FIG. 5D): significant increase in the enrichment of H3K4ac
- HDAC2 enrichment in the promoter region of miR-335 ([3]; keratinocytes, ChIP): reduced
- relative expression of miR-335 (miR-335; N/TERT-1 keratinocytes, qRT-PCR, FIG. 5B): significant miR-335 upregulation
- relative expression of MEST (N/TERT-1 keratinocytes [2]; N/TERT-1, qRT-PCR, FIG. 5C): significantly increased MEST expression
- relative transcript abundance of differentiation markers IVL, SPRR2F and TGM1 (N/TERT-1 keratinocytes [2]; N/TERT-1, qRT-PCR, FIG. 5F): significant upregulation
